tested on: C. elegans; assay: Efficacy against nematodes (C. elegans motility rating); parameters: key: 0: no effect; 7: reduced movement in 24 h; 8: dead in 24 h; 9: dead in 4 h; settings: dose 200 μM, observations at 4 h and 24 h postimmersion
Experimental: Evaluation of the Efficacy of a 3-Aryl-4-Hydroxyfuranone Against Nematodes
In this evaluation, cultures of C. elegans are maintained on E. coli lawns on Nematode Growth Agar at 20° C. New cultures are established twice a week. Nematodes for testing are rinsed from plates using M9 Buffer. […] One μL of this solution is added to each well of a 96 well plate. A mixture of C. elegans in M9 Buffer (100 μL) is added to each well, such that approximately 50 worms of mixed stages (L1, L2, L3, L4 and adults) are present in each well at a final concentration of 100 ppm, 150 ppm or […] of test compound. Concentration of test compound may be varied by gradient dilution of the stock DMSO solution. Observations are made under a dissecting microscope at 4 h and 24 h postimmersion. A rating is based on the motility of the larvae and adults, using the rating system shown below.

`Cc1cccc(C2=C(O)C(=Cc3cc(C(F)(F)F)ccc3Cl)OC2=O)c1C` and `Cc1ccc(C)c(C2=C(O)/C(=C/c3cc(C(F)(F)F)ccc3Cl)OC2=O)c1` are the same in Rating: 0 for the first, 0 for the second.

`CC(C)c1cccc(C2=C(O)/C(=C/c3cc(C(F)(F)F)ccc3Cl)OC2=O)c1` and `Cc1ccc(C2=C(O)/C(=C/c3cc(C(F)(F)F)ccc3Cl)OC2=O)cc1C` are the same in Rating: 0 for the first, 0 for the second.

`Cc1ccc(C2=C(O)C(=Cc3cccc(C(F)(F)F)c3Cl)OC2=O)cc1C` and `CC(C)c1ccc(C2=C(O)/C(=C/c3cccc(C(F)(F)F)c3Cl)OC2=O)cc1` are the same in Rating: 9 for the first, 9 for the second.

Going from `Cc1cc(C)cc(C2=C(O)/C(=C/c3cc(C(F)(F)F)ccc3Cl)OC2=O)c1` to `CCc1ccc(C2=C(O)/C(=C/c3cc(C(F)(F)F)ccc3Cl)OC2=O)cc1`, the Rating rises from 0 to 9.

`CCOc1ccc(-c2ccc(C3=C(O)/C(=C/c4cc(C(F)(F)F)ccc4F)OC3=O)cc2)cc1` and `CCCc1ccc(-c2ccc(C3=C(O)/C(=C/c4cc(C(F)(F)F)ccc4F)OC3=O)cc2)cc1` are the same in Rating: 9 for the first, 9 for the second.

`CCCCc1ccc(-c2ccc(C3=C(O)C(=Cc4cccc(C(F)(F)F)c4Cl)OC3=O)cc2)cc1` and `CCCc1ccc(-c2ccc(C3=C(O)/C(=C/c4cccc(C(F)(F)F)c4Cl)OC3=O)cc2)cc1` are the same in Rating: 9 for the first, 9 for the second.

`CCCCc1ccc(-c2ccc(C3=C(O)/C(=C/c4cc(C(F)(F)F)ccc4F)OC3=O)cc2)cc1` and `CCCc1ccc(-c2ccc(C3=C(O)/C(=C/c4cc(C(F)(F)F)ccc4Cl)OC3=O)cc2)cc1` are the same in Rating: 0 for the first, 0 for the second.

Compared with `CCCCc1ccc(-c2ccc(C3=C(O)C(=Cc4cc(F)cc(C(F)(F)F)c4)OC3=O)cc2)cc1`, `CC(C)(C)c1ccc(-c2ccc(C3=C(O)/C(=C/c4cccc(C(F)(F)F)c4)OC3=O)cc2)cc1` is lower in Rating: 9 for the first, 0 for the second.

same assay, conditions: dose 100 ppm, observations at 4 h and 24 h postimmersion

`O=C1OC(=Cc2ccc(Cl)c(Cl)c2)C(O)=C1c1ccc(Cl)s1` and `O=C1O/C(=C\c2ccc(F)c(F)c2)C(O)=C1c1ccc(Cl)s1` are the same in Rating: 9 for the first, 9 for the second.

`O=C1O/C(=C\c2ccc(C(F)(F)F)cc2)C(O)=C1c1ccc(Cl)s1` and `O=C1O/C(=C\c2ccc(OC(F)(F)F)cc2)C(O)=C1c1ccc(Cl)s1` are the same in Rating: 9 for the first, 9 for the second.

`N#Cc1ccc(/C=C2\OC(=O)C(c3ccc(Cl)s3)=C2O)cc1` and `O=C1O/C(=C\c2ccc(Cl)cc2)C(O)=C1c1ccc(Cl)s1` are the same in Rating: 9 for the first, 9 for the second.

`O=C1O/C(=C\c2ccc(F)c(C(F)(F)F)c2)C(O)=C1c1ccc(Cl)s1` and `O=C1O/C(=C\c2ccc(F)cc2)C(O)=C1c1ccc(Cl)s1` are the same in Rating: 9 for the first, 9 for the second.

`O=C1O/C(=C\c2ccc(OC(F)F)cc2)C(O)=C1c1ccc(Cl)s1` and `O=C1O/C(=C\c2ccc(OCC3CC3)cc2)C(O)=C1c1ccc(Cl)s1` are the same in Rating: 9 for the first, 9 for the second.

`O=C1OC(=Cc2ccc(Cl)s2)C(O)=C1c1ccc(Cl)s1` and `O=C1OC(=Cc2cnccc2-c2ccc(Cl)s2)C(O)=C1c1ccc(OC(F)(F)F)cc1` (mixture of isomers) are the same in Rating: 9 for the first, 9 for the second.

`O=C1OC(=Cc2ccc(-c3ccc(Cl)cc3)cc2)C(O)=C1c1ccc(C(F)(F)F)cc1` (mixture of isomers) and `N#Cc1ccc(C2=C(O)C(=Cc3ccc(-c4ccc(C(F)(F)F)cc4)cc3)OC2=O)cc1` (mixture of isomers) are the same in Rating: 9 for the first, 9 for the second.

`COc1ccc(-n2ncc(C=C3OC(=O)C(c4ccc(OC(F)(F)F)cc4)=C3O)c2C)cc1` (mixture of isomers) and `Cc1ccccc1-n1ncc(C=C2OC(=O)C(c3ccc(OC(F)(F)F)cc3)=C2O)c1C` (mixture of isomers) are the same in Rating: 0 for the first, 0 for the second.

`O=C1OC(=Cc2cccnc2Cl)C(O)=C1c1ccc(OC(F)(F)F)cc1` (mixture of isomers) and `O=C1OC(=Cc2ccncc2Cl)C(O)=C1c1ccc(OC(F)(F)F)cc1` (mixture of isomers) are the same in Rating: 9 for the first, 9 for the second.

`Cc1nc(C=C2OC(=O)C(c3ccc(OC(F)(F)F)cc3)=C2O)c[nH]1` (mixture of isomers) and `O=C1OC(=Cc2c[nH]c(-c3ccccc3)n2)C(O)=C1c1ccc(OC(F)(F)F)cc1` (mixture of isomers) are the same in Rating: 0 for the first, 0 for the second.

Compared with `O=C1OC(=Cc2ccc3c(c2)OC(F)(F)O3)C(O)=C1c1ccc(OC(F)(F)F)cc1` (mixture of isomers), `CCCOc1ccc(C=C2OC(=O)C(c3ccc(OC(F)(F)F)cc3)=C2O)cc1` (mixture of isomers) is lower in Rating: 9 for the first, 0 for the second.

First: O=C1OC(=Cc2ccc(OC(F)(F)C(F)F)cc2)C(O)=C1c1ccc(OC(F)(F)F)cc1 (mixture of isomers)
Second: O=C1OC(=Cc2ccc(OCC3CC3)cc2)C(O)=C1c1ccc(OC(F)(F)F)cc1 (mixture of isomers)
The Rating of the first is higher: 9 for the first, 0 for the second.

`O=C1OC(=Cc2cnccc2-c2cccc(Cl)c2)C(O)=C1c1ccc(OC(F)(F)F)cc1` (mixture of isomers) and `O=C1OC(=Cc2cnccc2-c2ccc(Cl)cc2)C(O)=C1c1ccc(OC(F)(F)F)cc1` (mixture of isomers) are the same in Rating: 9 for the first, 9 for the second.

`O=C1OC(=Cc2cnccc2-c2ccc(OC(F)(F)F)cc2)C(O)=C1c1ccc(OC(F)(F)F)cc1` (mixture of isomers) and `O=C1OC(=Cc2ccc(-c3ccc(F)c(C(F)(F)F)c3)o2)C(O)=C1c1ccc(OC(F)(F)F)cc1` (mixture of isomers) are the same in Rating: 9 for the first, 9 for the second.

First: O=C1OC(=Cc2ccc(-c3ccc(Cl)s3)cc2)C(O)=C1c1ccc(OC(F)(F)F)cc1 (mixture of isomers)
Second: Cn1cc(Cl)c(C=C2OC(=O)C(c3ccc(OC(F)(F)F)cc3)=C2O)n1 (mixture of isomers)
The Rating of the first is higher: 9 for the first, 0 for the second.

Work on `Cc1nn(C)c(Cl)c1C=C1OC(=O)C(c2ccc(OC(F)(F)F)cc2)=C1O` (mixture of isomers) yielded a Rating of 0.

same assay, conditions: dose 150 ppm, observations at 4 h and 24 h postimmersion

`O=C1O/C(=C\c2ccc(-c3ccccc3CO)cc2)C(O)=C1c1ccccc1CO` and `O=C1OC(=Cc2ccc(-c3cccc(CO)c3)cc2)C(O)=C1c1cccc(CO)c1` are the same in Rating: 0 for the first, 0 for the second.

First: COc1ccccc1-c1ccc(C=C2OC(=O)C(c3cc(Cl)cc(Cl)c3)=C2O)cc1C
Second: COc1cc(/C=C2\OC(=O)C(c3cc(Cl)cc(Cl)c3)=C2O)ccc1-c1ccccc1C
The Rating of the first is lower: 0 for the first, 9 for the second.

Compared with `O=C1O/C(=C\c2ccc(-c3cccc(C(F)(F)F)c3)cc2)C(O)=C1c1cccc(C(F)(F)F)c1`, `O=C1OC(=Cc2ccc(-c3cc(C(F)(F)F)cc(C(F)(F)F)c3)cc2)C(O)=C1c1cc(C(F)(F)F)cc(C(F)(F)F)c1` is lower in Rating: 8 for the first, 0 for the second.

First: COc1ccc(/C=C2\OC(=O)C(c3cccc(Cl)c3)=C2O)c2ccccc12
Second: COc1ccc(/C=C2\OC(=O)C(c3cc(Cl)cc(Cl)c3)=C2O)c2ccccc12
The Rating of the first is higher: 9 for the first, 0 for the second.

`O=C1O/C(=C\c2ccc(N3CCOCC3)c3ccccc23)C(O)=C1c1cccc(Cl)c1` and `O=C1O/C(=C\c2ccc(N3CCOCC3)c3ccccc23)C(O)=C1c1cc(Cl)cc(Cl)c1` are the same in Rating: 0 for the first, 0 for the second.

Going from `CCOC(=O)N1CCN(c2ccc(/C=C3\OC(=O)C(c4cccc(Cl)c4)=C3O)cc2F)CC1` to `CCOC(=O)N1CCN(c2ccc(C=C3OC(=O)C(c4cc(Cl)cc(Cl)c4)=C3O)cc2F)CC1`, the Rating falls from 7 to 0.

`Cc1cc(/C=C2\OC(=O)C(c3cccc(Cl)c3)=C2O)ccc1-c1ccccc1C(F)(F)F` and `COc1cc(/C=C2\OC(=O)C(c3cccc(Cl)c3)=C2O)ccc1-c1ccccc1C(F)(F)F` are the same in Rating: 9 for the first, 9 for the second.

Compared with `Cc1cc(/C=C2\OC(=O)C(c3cccc(Cl)c3)=C2O)ccc1-c1ccccc1Cl`, `COc1cc(/C=C2\OC(=O)C(c3cccc(Cl)c3)=C2O)ccc1-c1ccccc1Cl` is lower in Rating: 9 for the first, 8 for the second.

Compared with `COc1ccccc1-c1ccc(C=C2OC(=O)C(c3cccc(Cl)c3)=C2O)cc1C`, `COc1ccccc1-c1ccc(/C=C2\OC(=O)C(c3cc(Cl)cc(Cl)c3)=C2O)cc1OC` is lower in Rating: 7 for the first, 0 for the second.

`O=C1O/C(=C\c2cc(C(F)(F)F)ccc2Cl)C(O)=C1c1ccc(N2CCOCC2)c(F)c1` and `CN(C)c1ccc(/C=C2\OC(=O)C(c3ccc(C(F)(F)F)cc3)=C2O)c2ccccc12` are the same in Rating: 0 for the first, 0 for the second.

`CC(=O)Nc1cccc(C2=C(O)C(=Cc3ccc(-c4cccc(NC(C)=O)c4)cc3)OC2=O)c1` and `Cc1ccc(C2=C(O)/C(=C/c3ccc(-c4ccc(C)cc4)cc3)OC2=O)cc1` are the same in Rating: 0 for the first, 0 for the second.

`CN(C)c1ccc(C=C2OC(=O)C(c3cc(Cl)cc(Cl)c3)=C2O)c2ccccc12` and `CN(C)c1ccc(/C=C2\OC(=O)C(c3ccc(Cl)cc3)=C2O)c2ccccc12` are the same in Rating: 0 for the first, 0 for the second.

`O=C1OC(=Cc2ccccc2OCc2ccccc2)C(O)=C1c1cc(Cl)cc(Cl)c1` and `O=C1OC(=Cc2cccc(OCc3ccccc3)c2)C(O)=C1c1cc(Cl)cc(Cl)c1` are the same in Rating: 0 for the first, 0 for the second.

First: O=C1O/C(=C\c2ccc(N3CCN(c4ccccc4Cl)CC3)c(Cl)c2)C(O)=C1c1cc(Cl)cc(Cl)c1
Second: Cc1cc(/C=C2\OC(=O)C(c3cc(Cl)cc(Cl)c3)=C2O)ccc1-c1ccccc1Cl
The Rating of the first is lower: 0 for the first, 7 for the second.

`CCOC(=O)CNC(=O)CNC(=O)c1cccc(/C=C2\OC(=O)C(c3cc(Cl)cc(Cl)c3)=C2O)c1` and `Cc1ccccc1-c1ccc(C=C2OC(=O)C(c3cc(Cl)cc(Cl)c3)=C2O)cc1C` are the same in Rating: 0 for the first, 0 for the second.

Going from `COc1cc(/C=C2\OC(=O)C(c3cc(Cl)cc(Cl)c3)=C2O)ccc1-c1ccccc1C(F)(F)F` to `O=C1O/C(=C\c2ccc(-c3cc(Cl)cc(Cl)c3)cc2)C(O)=C1c1cc(Cl)cc(Cl)c1`, the Rating rises from 0 to 7.

First: N#Cc1ccc(C2=C(O)C(=Cc3ccc(-c4ccc(Cl)cc4)cc3)OC2=O)cc1
Second: CC(C)(C)c1ccc(-c2ccc(C3=C(O)/C(=C/c4ccc(-c5ccccc5)cc4)OC3=O)cc2)cc1
The Rating of the first is higher: 9 for the first, 0 for the second.
